# Data published in patent publication US6355799B1, “Substituted benzene compounds, process for their preparation, and herbicidal and defoliant compositions containing them” (ISK Americas Incorporated, priority 1997, dated 2002).
# Legend:
# Format in all cases: in vivo
# [1] = system: sicklepod (Cassia obtusifolia, CASOB); assay: Post-emerge test, greenhouse herbicide activity screening; conditions: post-emerge, 14 days after application, rating scale 0-100
# Summary of the method: (§1)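 Visual ratings on a 0-100 scale (0 no damage, 100 all plants dead) were taken at 14 days after treatment. Rates of 15-1000 g ai/ha in acetone, 187 l/ha, were sprayed onto soil one day after planting (pre-emerge) or onto 2-3 leaf plants with 0.25% v/v surfactant (post-emerge).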
# [2] = system: velvetleaf (Abutilon theophrasti, ABUTH); assay: as above; conditions: post-emerge, 14 days after application, rating scale 0-100
# Summary of the method: as §1
# [3] = system: redroot pigweed (Amaranthus retroflexus, AMARE); assay: as above; conditions: post-emerge, 14 days after application, rating scale 0-100
# Summary of the method: as §1
# [4] = system: common ragweed (Ambrosia artemisizfolia L., AMBEL); assay: as above; conditions: post-emerge, 14 days after application, rating scale 0-100
# Summary of the method: as §1
# [5] = system: barnyardgrass (Echinochloa crus-galli, ECHCG); assay: as above; conditions: post-emerge, 14 days after application, rating scale 0-100
# Summary of the method: as §1
# [6] = system: lambsquarters (Chenopodium album, CHEAL); assay: as above; conditions: post-emerge, 14 days after application, rating scale 0-100
# Summary of the method: as §1
# [7] = system: ivyleaf morningglory (Ipomoea hederacea, IPOHE); assay: as above; conditions: post-emerge, 14 days after application, rating scale 0-100
# Summary of the method: as §1
# [8] = system: johnsongrass (Sorghum halepense, SORHA); assay: as above; conditions: post-emerge, 14 days after application, rating scale 0-100
# Summary of the method: as §1
# [9] = system: large crabgrass (Digitaria sanguinalis, DIGSA); assay: as above; conditions: post-emerge, 14 days after application, rating scale 0-100
# Summary of the method: as §1
# [10] = system: green foxtail (Setaria viridis, SETVI); assay: as above; conditions: post-emerge, 14 days after application, rating scale 0-100
# Summary of the method: as §1
# [11] = system: sicklepod (Cassia obtusifolia, CASOB); assay: Pre-emerge test, greenhouse herbicide activity screening; conditions: rated 14 days after application, 0 = no damage, 100 = complete death
# Summary of the method: (§2)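 Compounds in acetone were track-sprayed at 187 l/ha, 15–1000 g ai/ha, onto sandy loam pots. Pre-emerge seeds were sown one day before spraying, with surface watering afterwards. Post-emerge plants were at the 2–3 leaf stage and sprayed with 0.25% v/v non-ionic surfactant. Injury was rated 0–100 at 14 days.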
# [12] = system: velvetleaf (Abutilon theophrasti, ABUTH); assay: as above; conditions: rated 14 days after application, 0 = no damage, 100 = complete death
# Summary of the method: as §2
# [13] = system: common ragweed (Ambrosia artemisizfolia L., AMBEL); assay: as above; conditions: rated 14 days after application, 0 = no damage, 100 = complete death
# Summary of the method: as §2
# [14] = system: barnyardgrass (Echinochloa crus-galli, ECHCG); assay: as above; conditions: rated 14 days after application, 0 = no damage, 100 = complete death
# Summary of the method: as §2
# [15] = system: lambsquarters (Chenopodium album, CHEAL); assay: as above; conditions: rated 14 days after application, 0 = no damage, 100 = complete death
# Summary of the method: as §2
# [16] = system: ivyleaf morningglory (Ipomoea hederacea, IPOHE); assay: as above; conditions: rated 14 days after application, 0 = no damage, 100 = complete death
# Summary of the method: as §2
# [17] = system: johnsongrass (Sorghum halepense, SORHA); assay: as above; conditions: rated 14 days after application, 0 = no damage, 100 = complete death
# Summary of the method: as §2
# [18] = system: large crabgrass (Digitaria sanguinalis, DIGSA); assay: as above; conditions: rated 14 days after application, 0 = no damage, 100 = complete death
# Summary of the method: as §2
# [19] = system: green foxtail (Setaria viridis, SETVI); assay: as above; conditions: rated 14 days after application, 0 = no damage, 100 = complete death
# Summary of the method: as §2
# [20] = system: field corn (Zea mays L., var. Dekalb 535, CORN); assay: Post-emerge test, crop safety; conditions: post-emerge, 14 days after application, rating scale 0-100
# Summary of the method: as §2
# [21] = system: upland rice (Oryza sp., var. Tebonnet, RICE); assay: Post-emerge test, crop safety; conditions: post-emerge, 14 days after application, rating scale 0-100
# Summary of the method: as §2
# [22] = system: redroot pigweed (Amaranthus retroflexus, AMARE); assay: Pre-emerge test, greenhouse herbicide activity screening; conditions: rated 14 days after application, 0 = no damage, 100 = complete death
# Summary of the method: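 Sandy loam pots; pre-emerge: sown 1 d pre-spray, surface-watered after, then bottom-watered. Post-emerge: sown 8–21 d before, 2–3 leaf stage, + 0.25% v/v NIS, bottom-watered. Acetone, 187 l/ha track spray, 15–1000 g ai/ha. 0–100 injury score, day 14.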
# [23] = system: field corn (Zea mays L., var. Dekalb 535, CORN); assay: Pre-emerge test, crop safety; conditions: rated 14 days after application, 0 = no damage, 100 = complete death
# Summary of the method: (§3)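 Plants grown in 10 cm pots of sandy loam mix received acetone-dissolved compounds through a moving flat-fan nozzle. Doses ranged from 15 to 1000 g ai/ha. Pre-emerge pots were seeded one day earlier, post-emerge pots 8–21 days earlier. Fourteen days on, each pot was graded 0–100 for damage.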
# [24] = system: upland rice (Oryza sp., var. Tebonnet, RICE); assay: Pre-emerge test, crop safety; conditions: rated 14 days after application, 0 = no damage, 100 = complete death
# Summary of the method: as §3
smiles,measurement,setting,value
COc1c(Cl)cc(F)c(-n2c(=O)cc(C(F)(F)F)n(C)c2=O)c1N(C(=O)c1ccc(Cl)nc1)C(=O)c1ccc(Cl)nc1 [2-100],phytotoxicity rating CASOB,[1]; 63 g ai/ha,70
same,phytotoxicity rating CASOB,[1]; 250 g ai/ha,60
same,phytotoxicity rating ABUTH,[2]; 63 g ai/ha,100
same,phytotoxicity rating ABUTH,[2]; 250 g ai/ha,100
same,phytotoxicity rating AMARE,[3]; 63 g ai/ha,80
same,phytotoxicity rating AMARE,[3]; 250 g ai/ha,100
same,phytotoxicity rating AMBEL,[4]; 63 g ai/ha,70
same,phytotoxicity rating AMBEL,[4]; 250 g ai/ha,90
same,phytotoxicity rating ECHCG,[5]; 63 g ai/ha,0
same,phytotoxicity rating ECHCG,[5]; 250 g ai/ha,30
same,phytotoxicity rating CHEAL,[6]; 63 g ai/ha,80
same,phytotoxicity rating CHEAL,[6]; 250 g ai/ha,80
same,phytotoxicity rating IPOHE,[7]; 63 g ai/ha,100
same,phytotoxicity rating IPOHE,[7]; 250 g ai/ha,100
same,phytotoxicity rating SORHA,[8]; 63 g ai/ha,0
same,phytotoxicity rating SORHA,[8]; 250 g ai/ha,60
same,phytotoxicity rating DIGSA,[9]; 63 g ai/ha,0
same,phytotoxicity rating DIGSA,[9]; 250 g ai/ha,20
same,phytotoxicity rating SETVI,[10]; 63 g ai/ha,60
same,phytotoxicity rating SETVI,[10]; 250 g ai/ha,70
same,"Pre-emerge Herbicidal Activity, phytotoxicity rating (0-100), CASOB",[11]; 63 g ai/ha,30
same,"Pre-emerge Herbicidal Activity, phytotoxicity rating (0-100), CASOB",[11]; 250 g ai/ha,100
same,"Pre-emerge Herbicidal Activity, phytotoxicity rating (0-100), ABUTH",[12]; 63 g ai/ha,100
same,"Pre-emerge Herbicidal Activity, phytotoxicity rating (0-100), ABUTH",[12]; 250 g ai/ha,100
same,"Pre-emerge Herbicidal Activity, phytotoxicity rating (0-100), AMBEL",[13]; 63 g ai/ha,90
same,"Pre-emerge Herbicidal Activity, phytotoxicity rating (0-100), AMBEL",[13]; 250 g ai/ha,100
same,"Pre-emerge Herbicidal Activity, phytotoxicity rating (0-100), ECHCG",[14]; 63 g ai/ha,70
same,"Pre-emerge Herbicidal Activity, phytotoxicity rating (0-100), ECHCG",[14]; 250 g ai/ha,90
same,"Pre-emerge Herbicidal Activity, phytotoxicity rating (0-100), CHEAL",[15]; 63 g ai/ha,100
same,"Pre-emerge Herbicidal Activity, phytotoxicity rating (0-100), CHEAL",[15]; 250 g ai/ha,100
same,"Pre-emerge Herbicidal Activity, phytotoxicity rating (0-100), IPOHE",[16]; 63 g ai/ha,100
same,"Pre-emerge Herbicidal Activity, phytotoxicity rating (0-100), IPOHE",[16]; 250 g ai/ha,100
same,"Pre-emerge Herbicidal Activity, phytotoxicity rating (0-100), SORHA",[17]; 63 g ai/ha,85
same,"Pre-emerge Herbicidal Activity, phytotoxicity rating (0-100), SORHA",[17]; 250 g ai/ha,100
same,"Pre-emerge Herbicidal Activity, phytotoxicity rating (0-100), DIGSA",[18]; 63 g ai/ha,90
same,"Pre-emerge Herbicidal Activity, phytotoxicity rating (0-100), DIGSA",[18]; 250 g ai/ha,100
same,"Pre-emerge Herbicidal Activity, phytotoxicity rating (0-100), SETVI",[19]; 63 g ai/ha,100
same,"Pre-emerge Herbicidal Activity, phytotoxicity rating (0-100), SETVI",[19]; 250 g ai/ha,100
same,phytotoxicity rating CORN,[20]; 63 g ai/ha,15
same,phytotoxicity rating CORN,[20]; 250 g ai/ha,80
same,phytotoxicity rating RICE,[21]; 63 g ai/ha,45
same,phytotoxicity rating RICE,[21]; 250 g ai/ha,70
same,"Pre-emerge Herbicidal Activity, phytotoxicity rating (0-100), AMARE",[22]; 63 g ai/ha,100
same,"Pre-emerge Herbicidal Activity, phytotoxicity rating (0-100), AMARE",[22]; 250 g ai/ha,100
same,"Pre-emerge phytotoxicity rating (0-100), crop damage, CORN",[23]; 63 g ai/ha,45
same,"Pre-emerge phytotoxicity rating (0-100), crop damage, CORN",[23]; 250 g ai/ha,95
same,"Pre-emerge phytotoxicity rating (0-100), crop damage, RICE",[24]; 63 g ai/ha,75
same,"Pre-emerge phytotoxicity rating (0-100), crop damage, RICE",[24]; 250 g ai/ha,90
